Assay results: the NIST ThermoML archive (doi:10.1016/j.jct.2015.09.002)
± gives the expanded uncertainty stated by the source.

Assay: xn = mol fraction of the nth substance listed
Details: 93.2 kPa, Liquid, Vibrating tube method

A mass density (293.15 K, x2 = 0) of 737.12 ± 2 kg/m3, a mass density (293.15 K, x2 = 0.0102) of 737.48 ± 2 kg/m3 and a mass density (293.15 K, x2 = 0.0229) of 737.89 ± 2 kg/m3 were found for `CCCCN` [1-butanamine] + CC#N in this work. It also gave a mass density (293.15 K, x2 = 0.0481) of 738.62 ± 2 kg/m3, a mass density (293.15 K, x2 = 0.0616) of 738.99 ± 2 kg/m3 and a mass density (293.15 K, x2 = 0.2006) of 742.87 ± 2 kg/m3. The mass density (293.15 K, x2 = 0.35) was 747.75 ± 2 kg/m3, the mass density (293.15 K, x2 = 0.4) was 749.52 ± 2 kg/m3 and the mass density (293.15 K, x2 = 0.4503) was 751.36 ± 2 kg/m3. It also gave a mass density (293.15 K, x2 = 0.5007) of 753.36 ± 2 kg/m3, a mass density (293.15 K, x2 = 0.5489) of 755.38 ± 2 kg/m3 and a mass density (293.15 K, x2 = 0.6002) of 757.66 ± 2 kg/m3. For the same compound, the mass density (293.15 K, x2 = 0.6492) was 759.99 ± 2 kg/m3, the mass density (293.15 K, x2 = 0.6998) was 762.57 ± 2 kg/m3 and the mass density (293.15 K, x2 = 0.7488) was 765.21 ± 2 kg/m3. It also gave a mass density (293.15 K, x2 = 0.7997) of 768.18 ± 2 kg/m3, a mass density (293.15 K, x2 = 0.85) of 771.3 ± 2 kg/m3 and a mass density (293.15 K, x2 = 0.9004) of 774.67 ± 2 kg/m3. The mass density (293.15 K, x2 = 0.9188) was 775.96 ± 2 kg/m3, the mass density (293.15 K, x2 = 0.9498) was 778.23 ± 2 kg/m3 and the mass density (293.15 K, x2 = 0.96) was 779.01 ± 2 kg/m3. The mass density (293.15 K, x2 = 0.9694) was 779.73 ± 2 kg/m3, the mass density (293.15 K, x2 = 0.9804) was 780.56 ± 2 kg/m3 and the mass density (293.15 K, x2 = 0.9892) was 781.24 ± 2 kg/m3. It also gave a mass density (298.15 K, x2 = 0) of 732.33 ± 2 kg/m3, a mass density (298.15 K, x2 = 0.0102) of 732.7 ± 2 kg/m3 and a mass density (298.15 K, x2 = 0.0229) of 733.1 ± 2 kg/m3. For the same compound, the mass density (298.15 K, x2 = 0.0481) was 733.83 ± 2 kg/m3, the mass density (298.15 K, x2 = 0.0616) was 734.2 ± 2 kg/m3 and the mass density (298.15 K, x2 = 0.2006) was 738.04 ± 2 kg/m3. It also gave a mass density (298.15 K, x2 = 0.35) of 742.84 ± 2 kg/m3, a mass density (298.15 K, x2 = 0.4) of 744.61 ± 2 kg/m3 and a mass density (298.15 K, x2 = 0.4503) of 746.43 ± 2 kg/m3. It also gave a mass density (298.15 K, x2 = 0.5007) of 748.41 ± 2 kg/m3, a mass density (298.15 K, x2 = 0.5489) of 750.41 ± 2 kg/m3 and a mass density (298.15 K, x2 = 0.6002) of 752.67 ± 2 kg/m3. The mass density (298.15 K, x2 = 0.6492) was 754.96 ± 2 kg/m3, the mass density (298.15 K, x2 = 0.6998) was 757.51 ± 2 kg/m3 and the mass density (298.15 K, x2 = 0.7488) was 760.11 ± 2 kg/m3. For the same compound, the mass density (298.15 K, x2 = 0.7997) was 763.02 ± 2 kg/m3, the mass density (298.15 K, x2 = 0.85) was 766.08 ± 2 kg/m3 and the mass density (298.15 K, x2 = 0.9004) was 769.4 ± 2 kg/m3. It also gave a mass density (298.15 K, x2 = 0.9188) of 770.66 ± 2 kg/m3, a mass density (298.15 K, x2 = 0.9498) of 772.9 ± 2 kg/m3 and a mass density (298.15 K, x2 = 0.96) of 773.67 ± 2 kg/m3. It also gave a mass density (298.15 K, x2 = 0.9694) of 774.38 ± 2 kg/m3, a mass density (298.15 K, x2 = 0.9804) of 775.21 ± 2 kg/m3 and a mass density (298.15 K, x2 = 0.9892) of 775.87 ± 2 kg/m3. The mass density (303.15 K, x2 = 0) was 727.51 ± 2 kg/m3, the mass density (303.15 K, x2 = 0.0102) was 727.88 ± 2 kg/m3 and the mass density (303.15 K, x2 = 0.0229) was 728.28 ± 2 kg/m3. It also gave a mass density (303.15 K, x2 = 0.0481) of 729.01 ± 2 kg/m3, a mass density (303.15 K, x2 = 0.0616) of 729.37 ± 2 kg/m3 and a mass density (303.15 K, x2 = 0.2006) of 733.19 ± 2 kg/m3. For the same compound, the mass density (303.15 K, x2 = 0.35) was 737.89 ± 2 kg/m3, the mass density (303.15 K, x2 = 0.4) was 739.64 ± 2 kg/m3 and the mass density (303.15 K, x2 = 0.4503) was 741.47 ± 2 kg/m3. The mass density (303.15 K, x2 = 0.5007) was 743.43 ± 2 kg/m3, the mass density (303.15 K, x2 = 0.5489) was 745.4 ± 2 kg/m3 and the mass density (303.15 K, x2 = 0.6002) was 747.61 ± 2 kg/m3. It also gave a mass density (303.15 K, x2 = 0.6492) of 749.88 ± 2 kg/m3, a mass density (303.15 K, x2 = 0.6998) of 752.4 ± 2 kg/m3 and a mass density (303.15 K, x2 = 0.7488) of 754.97 ± 2 kg/m3. It also gave a mass density (303.15 K, x2 = 0.7997) of 757.82 ± 2 kg/m3, a mass density (303.15 K, x2 = 0.85) of 760.83 ± 2 kg/m3 and a mass density (303.15 K, x2 = 0.9004) of 764.09 ± 2 kg/m3. It also gave a mass density (303.15 K, x2 = 0.9188) of 765.33 ± 2 kg/m3, a mass density (303.15 K, x2 = 0.9498) of 767.54 ± 2 kg/m3 and a mass density (303.15 K, x2 = 0.96) of 768.29 ± 2 kg/m3. It also gave a mass density (303.15 K, x2 = 0.9694) of 769 ± 2 kg/m3, a mass density (303.15 K, x2 = 0.9804) of 769.81 ± 2 kg/m3 and a mass density (303.15 K, x2 = 0.9892) of 770.46 ± 2 kg/m3. It also gave a mass density (308.15 K, x2 = 0) of 722.66 ± 2 kg/m3, a mass density (308.15 K, x2 = 0.0102) of 723.03 ± 2 kg/m3 and a mass density (308.15 K, x2 = 0.0229) of 723.42 ± 2 kg/m3. The mass density (308.15 K, x2 = 0.0481) was 724.14 ± 2 kg/m3, the mass density (308.15 K, x2 = 0.0616) was 724.51 ± 2 kg/m3 and the mass density (308.15 K, x2 = 0.2006) was 728.3 ± 2 kg/m3. The mass density (308.15 K, x2 = 0.35) was 732.98 ± 2 kg/m3, the mass density (308.15 K, x2 = 0.4) was 734.69 ± 2 kg/m3 and the mass density (308.15 K, x2 = 0.4503) was 736.49 ± 2 kg/m3. For the same compound, the mass density (308.15 K, x2 = 0.5007) was 738.41 ± 2 kg/m3, the mass density (308.15 K, x2 = 0.5489) was 740.35 ± 2 kg/m3 and the mass density (308.15 K, x2 = 0.6002) was 742.54 ± 2 kg/m3. For the same compound, the mass density (308.15 K, x2 = 0.6492) was 744.78 ± 2 kg/m3, the mass density (308.15 K, x2 = 0.6998) was 747.24 ± 2 kg/m3 and the mass density (308.15 K, x2 = 0.7488) was 749.77 ± 2 kg/m3. The mass density (308.15 K, x2 = 0.7997) was 752.57 ± 2 kg/m3, the mass density (308.15 K, x2 = 0.85) was 755.54 ± 2 kg/m3 and the mass density (308.15 K, x2 = 0.9004) was 758.76 ± 2 kg/m3. It also gave a mass density (308.15 K, x2 = 0.9188) of 759.98 ± 2 kg/m3, a mass density (308.15 K, x2 = 0.9498) of 762.15 ± 2 kg/m3 and a mass density (308.15 K, x2 = 0.96) of 762.89 ± 2 kg/m3. It also gave a mass density (308.15 K, x2 = 0.9694) of 763.59 ± 2 kg/m3, a mass density (308.15 K, x2 = 0.9804) of 764.38 ± 2 kg/m3 and a mass density (308.15 K, x2 = 0.9892) of 765.03 ± 2 kg/m3.
